Tested on: KRAS-mutant PDC tumor spheroid with HUVEC/MSC, viability
Assay: Anticancer human tumor 327498-153-R-J2-PDC patient-derived uterine carcinosarcoma cell line growth inhibition [KRAS2]
Details: for viability, T/C: stronger effect = lower value
Method in brief: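 KRAS-mutant tumor cells were grown as spheroids with HUVEC endothelial cells and human MSCs as stroma. Targeted agents were tested alone and with KRAS pathway inhibitors. Doses started at or near clinical Cmax, or 10 microM, descending half-log.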

[1] = curve of first compound, second compound 0.1 µM
[2] = curve of first compound, second compound 0.316 µM
[3] = curve of first compound, second compound 1 µM
[4] = curve of first compound, second compound 3.16 µM
[5] = curve of first compound, second compound 10 µM
[6] = second compound 0.1 µM, first compound 0.000316 µM
[7] = second compound 0.1 µM, first compound 0.001 µM
[8] = second compound 0.1 µM, first compound 0.00316 µM
[9] = second compound 0.1 µM, first compound 0.01 µM
[10] = second compound 0.1 µM, first compound 0.0316 µM
[11] = second compound 0.1 µM, first compound 0.1 µM
[12] = second compound 0.316 µM, first compound 0.000316 µM
[13] = second compound 0.316 µM, first compound 0.001 µM
[14] = second compound 0.316 µM, first compound 0.00316 µM
[15] = second compound 0.316 µM, first compound 0.01 µM
[16] = second compound 0.316 µM, first compound 0.0316 µM
[17] = second compound 0.316 µM, first compound 0.1 µM
[18] = second compound 1 µM, first compound 0.000316 µM
[19] = second compound 1 µM, first compound 0.001 µM
[20] = second compound 1 µM, first compound 0.00316 µM
[21] = second compound 1 µM, first compound 0.01 µM
[22] = second compound 1 µM, first compound 0.0316 µM
[23] = second compound 1 µM, first compound 0.1 µM
[24] = second compound 3.16 µM, first compound 0.000316 µM
[25] = second compound 3.16 µM, first compound 0.001 µM
[26] = second compound 3.16 µM, first compound 0.00316 µM
[27] = second compound 3.16 µM, first compound 0.01 µM
[28] = second compound 3.16 µM, first compound 0.0316 µM
[29] = second compound 3.16 µM, first compound 0.1 µM
[30] = second compound 10 µM, first compound 0.000316 µM
[31] = second compound 10 µM, first compound 0.001 µM
[32] = second compound 10 µM, first compound 0.00316 µM
[33] = second compound 10 µM, first compound 0.01 µM
[34] = second compound 10 µM, first compound 0.0316 µM
[35] = second compound 10 µM, first compound 0.1 µM
[36] = second compound 0.1 µM, first compound 0.316 µM
[37] = second compound 0.1 µM, first compound 1 µM
[38] = second compound 0.316 µM, first compound 0.316 µM
[39] = second compound 0.316 µM, first compound 1 µM
[40] = second compound 1 µM, first compound 0.316 µM
[41] = second compound 1 µM, first compound 1 µM
[42] = second compound 3.16 µM, first compound 0.316 µM
[43] = second compound 3.16 µM, first compound 1 µM
[44] = second compound 10 µM, first compound 0.316 µM
[45] = second compound 10 µM, first compound 1 µM
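Also: spheroids exposed to agents for seven days before reading.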
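For viability, T/C in this document: 100% = DMSO vehicle wells so lower means fewer viable cells.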

In the case of `Cn1ncnc1[C@H]1c2n[nH]c(=O)c3cc(F)cc(c23)N[C@@H]1c1ccc(F)cc1` + CC1OCC2(CCN(c3cnc(Sc4ccnc(N)c4Cl)c(N)n3)CC2)C1N, the IC50 [1] is reported as 10.9 nM, the IC50 [2] is reported as 1.14 nM and the IC50 [3] is reported as less than 0.316 nM. For the same compound, the IC50 [4] was less than 0.316 nM, the IC50 [5] was less than 0.316 nM and the viability, T/C [6] was 71.8%. The viability, T/C [7] was 68.1%, the viability, T/C [8] was 59.4% and the viability, T/C [9] was 55.2%. It also gave a viability, T/C [10] of 31.4%, a viability, T/C [11] of 18% and a viability, T/C [12] of 58%. It also gave a viability, T/C [13] of 51.1%, a viability, T/C [14] of 40.7% and a viability, T/C [15] of 38.2%. The viability, T/C [16] was 23.3%, the viability, T/C [17] was 15.6% and the viability, T/C [18] was 45.5%. It also gave a viability, T/C [19] of 37.2%, a viability, T/C [20] of 26.6% and a viability, T/C [21] of 21.4%. For the same compound, the viability, T/C [22] was 15.6%, the viability, T/C [23] was 13.2% and the viability, T/C [24] was 30%. For the same compound, the viability, T/C [25] was 32.2%, the viability, T/C [26] was 25% and the viability, T/C [27] was 19.2%. It also gave a viability, T/C [28] of 11.2%, a viability, T/C [29] of 9.64% and a viability, T/C [30] of 29.5%. For the same compound, the viability, T/C [31] was 27.1%, the viability, T/C [32] was 21.9% and the viability, T/C [33] was 15.5%. The viability, T/C [34] was 12.4% and the viability, T/C [35] was 8.58%.

For `CNCc1ccccc1-c1csc(C(C)Nc2nc(C)nc3cc(OC)c(OC)cc23)c1` (stereo not given), the viability, T/C (compound 0.1 µM) was 85.7% [middle of 17 runs], the viability, T/C (compound 0.316 µM) was 77.5% [middle of 17 runs] and the viability, T/C (compound 10 µM) was 1.07% [middle of 17 runs]. For the same compound, the IC50 (compound alone, run of 07/19/2021) was 1.43 µM [middle of 5 runs] and the IC50 (compound alone, run of 07/26/2021) was 1.48 µM [middle of 5 runs].

`CCN1CCN(Cc2ccc(Nc3ncc(F)c(-c4cc(F)c5nc(C)n(C(C)C)c5c4)n3)nc2)CC1` + C=CC(=O)N1CCN(c2nc(=O)n(-c3c(C)ccnc3C(C)C)c3nc(-c4c(O)cccc4F)c(F)cc23)C(C)C1 gave an IC50 [1] of 5.23 nM, an IC50 [2] of less than 3.16 nM and an IC50 [3] of less than 3.16 nM. The IC50 [4] was less than 3.16 nM, the IC50 [5] was less than 3.16 nM and the viability, T/C [8] was 56.9%. The viability, T/C [9] was 42.5%, the viability, T/C [10] was 32.7% and the viability, T/C [11] was 30.6%. It also gave a viability, T/C [36] of 30.7%, a viability, T/C [37] of 35.1% and a viability, T/C [14] of 49.6%. The viability, T/C [15] was 40.5%, the viability, T/C [16] was 28.2% and the viability, T/C [17] was 31.1%. It also gave a viability, T/C [38] of 34.9%, a viability, T/C [39] of 40% and a viability, T/C [20] of 48.3%. The viability, T/C [21] was 42%, the viability, T/C [22] was 30.2% and the viability, T/C [23] was 33.5%. It also gave a viability, T/C [40] of 39%, a viability, T/C [41] of 38.3% and a viability, T/C [26] of 49.2%. It also gave a viability, T/C [27] of 39%, a viability, T/C [28] of 33.8% and a viability, T/C [29] of 32.7%. For the same compound, the viability, T/C [42] was 40.5%, the viability, T/C [43] was 36.9% and the viability, T/C [32] was 41.9%. It also gave a viability, T/C [33] of 32.5%, a viability, T/C [34] of 35.6% and a viability, T/C [35] of 36.2%. For the same compound, the viability, T/C [44] was 39.3% and the viability, T/C [45] was 2.69%.

`CCN1CCN(Cc2ccc(Nc3ncc(F)c(-c4cc(F)c5nc(C)n(C(C)C)c5c4)n3)nc2)CC1` + COc1cc2nc(C)nc(NC(C)c3cc(N)cc(C(F)(F)F)c3)c2cc1OC1CCOC1 showed an IC50 [1] of 10.6 nM, an IC50 [2] of 6.84 nM and an IC50 [3] of less than 3.16 nM. It also gave an IC50 [4] of 4.42 nM, an IC50 [5] of less than 3.16 nM and a viability, T/C [8] of 65.4%. The viability, T/C [9] was 52.8%, the viability, T/C [10] was 42.6% and the viability, T/C [11] was 40%. The viability, T/C [36] was 40%, the viability, T/C [37] was 49.2% and the viability, T/C [14] was 61%. For the same compound, the viability, T/C [15] was 48%, the viability, T/C [16] was 33.2% and the viability, T/C [17] was 35.9%. For the same compound, the viability, T/C [38] was 36.6%, the viability, T/C [39] was 41.2% and the viability, T/C [20] was 51.8%. The viability, T/C [21] was 37.8%, the viability, T/C [22] was 33% and the viability, T/C [23] was 30%. It also gave a viability, T/C [40] of 39.5%, a viability, T/C [41] of 42.8% and a viability, T/C [26] of 56.4%. For the same compound, the viability, T/C [27] was 34.5%, the viability, T/C [28] was 31% and the viability, T/C [29] was 29.9%. It also gave a viability, T/C [42] of 34.6%, a viability, T/C [43] of 31.3% and a viability, T/C [32] of 45.4%. For the same compound, the viability, T/C [33] was 28.9%, the viability, T/C [34] was 29.2% and the viability, T/C [35] was 26.9%. For the same compound, the viability, T/C [44] was 20.3% and the viability, T/C [45] was 0.34%.

For `CN(C)C/C=C/C(=O)Nc1cc2c(Nc3ccc(F)c(Cl)c3)ncnc2cc1O[C@H]1CCOC1` + C=CC(=O)N1CCN(c2nc(=O)n(-c3c(C)ccnc3C(C)C)c3nc(-c4c(O)cccc4F)c(F)cc23)C(C)C1, the IC50 [1] was less than 0.316 nM, the IC50 [2] was greater than 100 nM and the IC50 [3] was greater than 100 nM. For the same compound, the IC50 [4] was greater than 100 nM, the IC50 [5] was greater than 100 nM and the viability, T/C [6] was 86.9%. For the same compound, the viability, T/C [7] was 95.8%, the viability, T/C [8] was 102% and the viability, T/C [9] was 101%. For the same compound, the viability, T/C [10] was 110%, the viability, T/C [11] was 109% and the viability, T/C [12] was 87.5%. The viability, T/C [13] was 94.9%, the viability, T/C [14] was 97% and the viability, T/C [15] was 106%. It also gave a viability, T/C [16] of 116%, a viability, T/C [17] of 115% and a viability, T/C [18] of 85.5%. For the same compound, the viability, T/C [19] was 97.5%, the viability, T/C [20] was 92.8% and the viability, T/C [21] was 101%. For the same compound, the viability, T/C [22] was 115%, the viability, T/C [23] was 103% and the viability, T/C [24] was 82.6%. For the same compound, the viability, T/C [25] was 86.9%, the viability, T/C [26] was 91.8% and the viability, T/C [27] was 96.7%. The viability, T/C [28] was 99.2%, the viability, T/C [29] was 96.7% and the viability, T/C [30] was 87.2%. For the same compound, the viability, T/C [31] was 100%, the viability, T/C [32] was 99.6% and the viability, T/C [33] was 105%. The viability, T/C [34] was 111% and the viability, T/C [35] was 115%.

`CN(C)C/C=C/C(=O)Nc1cc2c(Nc3ccc(F)c(Cl)c3)ncnc2cc1O[C@H]1CCOC1` + C=CC(=O)N1CCN(c2nc(OCC3CCCN3C)nc3c2CCN(c2cccc4cccc(C)c24)C3)CC1CC#N was tested, and the IC50 (curve of first compound, second compound 0.0316 µM) was greater than 100 nM, the IC50 [1] was 22 nM and the IC50 [2] was 2.29 nM. The IC50 [3] was 2.8 nM, the IC50 [4] was less than 0.316 nM and the viability, T/C (second compound 0.0316 µM, first compound 0.000316 µM) was 88.8%. The viability, T/C (second compound 0.0316 µM, first compound 0.001 µM) was 80.8%, the viability, T/C (second compound 0.0316 µM, first compound 0.00316 µM) was 74.4% and the viability, T/C (second compound 0.0316 µM, first compound 0.01 µM) was 64.2%. It also gave a viability, T/C (second compound 0.0316 µM, first compound 0.0316 µM) of 66.5%, a viability, T/C (second compound 0.0316 µM, first compound 0.1 µM) of 61.4% and a viability, T/C [6] of 62.9%. For the same compound, the viability, T/C [7] was 64.1%, the viability, T/C [8] was 50.8% and the viability, T/C [9] was 53.7%. It also gave a viability, T/C [10] of 48.4%, a viability, T/C [11] of 47.5% and a viability, T/C [12] of 66.8%. It also gave a viability, T/C [13] of 56.2%, a viability, T/C [14] of 45.2% and a viability, T/C [15] of 44.8%. It also gave a viability, T/C [16] of 50.2%, a viability, T/C [17] of 45.1% and a viability, T/C [18] of 56.3%. It also gave a viability, T/C [19] of 54.9%, a viability, T/C [20] of 47% and a viability, T/C [21] of 49.1%. The viability, T/C [22] was 43.6%, the viability, T/C [23] was 44% and the viability, T/C [24] was 1.53%. It also gave a viability, T/C [25] of 0.35%, a viability, T/C [26] of 0.21% and a viability, T/C [27] of 1.34%. The viability, T/C [28] was 0.49% and the viability, T/C [29] was 0.3%.
